Entries after “also recorded” stand apart in the source; their conditions may differ. Marks after values point to notes of the source that are not given here.
Legend:
rat = assay: biochemical parameters of bone metabolism in rats treated with DHEA and/or EM-800; assay type: in vivo; settings: for SERUM TALP (alkaline phosphatase) / URINE CALCIUM / URINE HP/Cr (hydroxyproline/creatinine ratio) / URINE PHOSPHORUS: DHEA 10 mg percutaneously, EM-800 75 μg orally, once daily; for decrease of urinary hydroxyproline/creatinine ratio, marker of bone resorption / increase of serum alkaline phosphatase activity, marker of bone formation: versus control
Text: Data are expressed as the means±SEM. **: P<0.01 experimental versus respective control.
It is particularly important to indicate that the combination of DHEA and EM-800 exerts unexpected beneficial effects on important biochemical parameters of bone metabolism. […] Moreover, no effect of DHEA alone could be detected on daily urinary calcium or phosphorus excretion (Luo, Sourla et al. 1997). EM-800, on the other hand, decreased the urinary hydroxyproline/creatinine ratio by 48% while, similarly to DHEA, no effect of EM-800 was seen on urinary calcium or phosphorus excretion. EM-800, moreover, had no effect on serum alkaline phosphatase activity, a marker of bone formation while DHEA increased the value of the parameter by about 75% (Luo, Sourla et al. 1997) (Table 2).
Thus, the addition of DHEA to EM-800 increases by 50% of the inhibitory effect of EM-800 on bone reabsorption.

60- to 70-year-old women = settings: cited from earlier work
[1] = test system: postmenopausal women suffering from vaginal atrophy; settings: daily intravaginal, 3 months; cited from earlier work
ovariectomized rats = assay: bone histomorphometry after 12-month treatment of ovariectomized rats; assay type: in vivo, rat; settings: 12 months
Method: (§1) FIG. 6 is a bar graph comparing the effect of 12-month treatment with dehydroepiandrosterone (DHEA) alone or in combination with Flutamide or EM-800 on trabecular bone volume in ovariectomized rats. Intact animals are added as additional controls. Data are presented as mean±SEM **p<0.01 versus OVX Control.
as §1, with “7” for “6”, “number of” for “bone volume in”
Note the reduced amount of trabecular bone (T) in ovariectomized control animals (B), and the significant increase in trabecular bone volume (T) induced after DHEA administration (C). […] Modified trichrome Masson-Goldner, magn.×80. T: Trabeculae, GP: Growth Plate.
Importantly, the combination of EM-800 and DHEA in ovariectomized rats treated for 12 months had beneficial effects on bone morphometry. Trabecular bone volume is particularly important for bone strength and to prevent bone fractures.

solid state stability = assay type: physicochemical
ovariectomized rat = settings: rat after ovariectomy; cited from earlier work
postmenopausal women = assay: serum lipids in postmenopausal women given oral EM-800; assay type: in vivo, human
[2] = test system: human endometrial Ishikawa carcinoma cells; settings: cited from earlier work

Compound: C[C@]12CC[C@H](O)CC1=CC[C@@H]1[C@@H]2CC[C@]2(C)C(=O)CC[C@@H]12 [DHEA, dehydroepiandrosterone]
- effect on daily urinary calcium or phosphorus excretion (rat): no effect
- SERUM TALP (alkaline phosphatase) (rat): 198.38 ± 30.76* IU/L
- URINE CALCIUM (rat): 25.87 ± 3.54 μmol/24 h/100 g
- URINE HP/Cr (hydroxyproline/creatinine ratio) (rat): 14.02 ± 1.59 μmol/mmol
- URINE PHOSPHORUS (rat): 151.41 ± 14.57 μmol/24 h/100 g
- decrease of urinary hydroxyproline/creatinine ratio, marker of bone resorption (rat): did not affect; also recorded: did not show any effect
- increase of serum alkaline phosphatase activity, marker of bone formation (rat): about 75%
- abdominal fat measurements (60- to 70-year-old women; 12 months): no significant change
- body weight (60- to 70-year-old women; 12 months): no change
- decrease in fasting plasma insulin levels (60- to 70-year-old women; 12 months): 17%
- decrease in plasma bone alkaline phosphatase (60- to 70-year-old women; 12 months): 22%
- decrease in subcutaneous skin fold thickness (60- to 70-year-old women; 12 months): 9.8%
- decrease in urinary hydroxyproline (60- to 70-year-old women; 12 months): 38%
- decrease of fasting plasma glucose (60- to 70-year-old women; 12 months): 12%
- decrease of femoral fat (midthigh, computed tomography) (60- to 70-year-old women; 12 months): 3.8%
- increase in bone mass density at the hip (60- to 70-year-old women; 12 months): 2.3%
- increase in bone mass density at the hip Ward's triangle (60- to 70-year-old women; 12 months): 3.75%
- increase in bone mass density at the lumbar spine level (60- to 70-year-old women; 12 months): 2.2%
- increase in femoral muscular area (midthigh, computed tomography) (60- to 70-year-old women; 12 months): 3.5%
- increase over control in plasma osteocalcin (60- to 70-year-old women; 12 months): 135%
- plasma triglycerides (60- to 70-year-old women; 12 months): not affected
- endometrium histology (60- to 70-year-old women; after 12 months, all women): remained completely atrophic
- increase in index of sebum secretion (60- to 70-year-old women; after 12 months): 79%
- women with stimulated vaginal epithelium maturation (60- to 70-year-old women; women with a maturation value of zero at onset of therapy): 8 out of 10
- circulating estradiol or testosterone [1]: no change
- domains of sexual dysfunction (desire, arousal, orgasm and pleasure) [1]: significant improvement
- symptoms and signs of vaginal atrophy [1]: rapid and very marked improvement
- increase in trabecular bone number compared to ovariectomized controls (ovariectomized rats): 137%
- trabecular bone number (ovariectomized rats): 1.27±0.1 per mm
- trabecular bone volume of the tibia (ovariectomized rats): 11.9±0.6%

Compound: CC1=C(c2ccc(O)cc2)[C@H](c2ccc(OCCN3CCCCC3)cc2)Oc2cc(O)ccc21.Cl [EM-652.HCl, (S)-(+)-7-hydroxy-3-(4′-hydroxyphenyl)-4-methyl-2-(4″-(2′″-piperidinoethoxy)phenyl)-2H-1 benzopyran hydrochloride]
- solid state stability (solid state stability): good solid state stability

Compound: CC1=C(c2ccc(OC(=O)C(C)(C)C)cc2)[C@H](c2ccc(OCCN3CCCCC3)cc2)Oc2cc(OC(=O)C(C)(C)C)ccc21 [EM-800, (S)-(+)-4-[7-(2,2-dimethyl-1-oxopropoxy)-4-methyl-2-[4-[2-(1-piperidinyl)-ethoxy]phenyl]-2H-1-benzopyran-3-yl]-phenyl 2,2-dimethylpropanoate]
- effect on daily urinary calcium or phosphorus excretion (rat): no effect
- SERUM TALP (alkaline phosphatase) (rat): 114.11 ± 11.26 IU/L
- URINE CALCIUM (rat): 17.44 ± 4.5 μmol/24 h/100 g
- URINE HP/Cr (hydroxyproline/creatinine ratio) (rat): 6.81 ± 0.84** μmol/mmol
- URINE PHOSPHORUS (rat): 102.03 ± 25.13 μmol/24 h/100 g
- decrease of urinary hydroxyproline/creatinine ratio, marker of bone resorption (rat): 48%
- increase of serum alkaline phosphatase activity, marker of bone formation (rat): no effect
- dose at which maximal effect on bone resorption is achieved (ovariectomized rat): 0.01 mg/kg
- decrease in total serum cholesterol (postmenopausal women; daily oral dose of 5, 10, 20 and 40 mg for 2 weeks): 10%
- decrease in serum triglyceride levels (postmenopausal women; daily oral dose of 5, 10, 20 and 40 mg, at 1 week): 15%
- antiestrogenic activity in Ishikawa cells [2]: pure antiestrogenic activity

Compound: COc1ccc(-c2sc3cc(O)ccc3c2Oc2ccc(OCCN3CCCCC3)cc2)cc1.Cl [Arzoxifene, 6-hydroxy-3-[4-[2-(1-piperidinyl)ethoxy]phenoxyl]-2-(4-methoxyphenyl)benzo[b]thiophene hydrochloride]
- effect on estrogen-sensitive parameter alkaline phosphatase [2]: stimulate, to various degrees

Compound: CC/C(=C(\c1ccccc1)c1ccc(OCCN(C)C)cc1)c1ccccc1 [Tamoxifen, (Z)-2-[4-(1,2-diphenyl-1-butenyl)phenoxy]-N,N-dimethylethanamine]
- effect on estrogen-sensitive parameter alkaline phosphatase [2]: stimulate, to various degrees

Compound: OCCOc1ccc(/C(=C(/CCCl)c2ccccc2)c2ccccc2)cc1 [Ospemifene, (Z)-2-[4-(4-chloro-1,2-diphenyl-1-butenyl)phenoxyl]ethanol]
- effect on estrogen-sensitive parameter alkaline phosphatase [2]: stimulate, to various degrees

Compound: CN(C)CCOc1ccc(/C(=C(/CCCl)c2ccccc2)c2ccccc2)cc1 [Toremifene, (Z)-2-[4-(4-Chloro-1,2-diphenyl-1-butenyl)phenoxy]-N,N-dimethylethanamine]
- effect on estrogen-sensitive parameter alkaline phosphatase [2]: stimulate, to various degrees

Compound: CC/C(=C(/c1ccc(OCCN(C)C)cc1)c1cccc(O)c1)c1ccccc1 [Droloxifene, (E)-3-[1-[4-[2-(Dimethylamino)ethoxy]phenyl]-2-phenyl-1-butenyl]phenol]
- effect on estrogen-sensitive parameter alkaline phosphatase [2]: stimulate, to various degrees

Compound: Cl.O=C(c1ccc(OCCN2CCCCC2)cc1)c1c(-c2ccc(O)cc2)sc2cc(O)ccc12 [Raloxifene, [2-(4-hydroxyphenyl)-6-hydroxybenzo[b]thien-3-yl][4-[2-(1-piperidinyl)ethoxy]phenyl]-methanone hydrochloride]
- dose at which maximal effect on bone resorption is achieved (ovariectomized rat): 0.1 mg/kg
- effect on estrogen-sensitive parameter alkaline phosphatase [2]: stimulate, to various degrees

Compound: CC/C(=C(\c1ccc(I)cc1)c1ccc(OCCN2CCCC2)cc1)c1ccccc1 [Idoxifene, (E)-1-[2-[4-[1-(4-Iodophenyl)-2-phenyl-1-butenyl]phenoxy]ethyl]pyrrolidine]
- effect on estrogen-sensitive parameter alkaline phosphatase [2]: stimulate, to various degrees

Source: patent US11576891B2, “Methods of treating or preventing estrogen-related diseases” (ENDORECHERCHE, INC., priority 2010, dated 2023)
